According to patent publication US8298555B2, “Color cosmetic compositions for topical anti-aging skin treatment” (Discovery Partners, LLC, priority 2007, dated 2012):

Assay: stability of absorbance spectrum under intense pulsed light (IPL) flashes
Assay type: physicochemical
Conditions: ten pulses at the maximum power of the flash lamp
Text: Another aspect of the present invention is that controlled dissociation of the sodium-copper-chlorophyllin complex can occur in part because of the high stability of this complex. Normally, inorganic and organic copper salts, including copper-peptides, are not very stable with regard to binding copper. The inherent stability and lack of reactivity of sodium-copper-chlorophyllin is essential for this process to work successfully. […] Stability was monitored by measurement of the dye's full absorbance spectrum, since degradation of the dye would be detectable as changes in the absorbance spectrum.

absorbance spectrum after IPL exposure (thermal and light stability): remained unchanged
Substance: sodium-copper-chlorophyllin
